Laboratory results published in US20230310441A1, “TREATMENT FOR SCHIZOPHRENIA” (TAKEDA PHARMACEUTICAL COMPANY, priority 2020, published 2023).
Marks after values point to notes of the source that are not given here.

What was measured:
[1] = Brief Assessment of Cognition in Schizophrenia (BACS) composite score; type: in vivo, human
Method: On Day 1 of each treatment period, following study drug administration, and commencing at approximately 2 h post-dose, subjects underwent PD tests for a total of approximately 4 h. Blood samples were collected at defined times after dosing to assess the PK of Compound (I). After the last PK collection at 6 h post-dose, subjects left the clinic. On Day 14 of each Treatment Period, subjects took the second set of PD tests along with a single time point PK collection. Samples for PK were also collected on Day 49 and at the final visit of the second treatment period. PD testing were performed in 3 blocks, separated by 2 breaks. The first block comprised the Grip Effort Task, the Progressive Ratio Test, and the Brief Assessment of Cognition in Schizophrenia (BACS). The BACS is a reliable and sensitive test battery specifically designed to efficiently assesses important cognitive deficits in patients with schizophrenia; accordingly, the BACS is suited for repeated testing in a clinical trial setting (Keefe et al., 2004). […] The following domains of cognitive function found to be consistently impaired in schizophrenia were assessed in this study: verbal memory; working memory; motor function; attention and processing speed; verbal fluency; and executive function. A composite score was calculated from each of the subset scores and used as a single endpoint for the assessment.
The BACS consisted of items across 6 subtests: Verbal Memory, Digit Sequencing, Token Motor, Verbal Fluency, Symbol Coding, and Tower of London.
The observed BOLD signal was summarized (N, mean, median, SD, minimum, and maximum) by treatment (Compound (I) (overall and by dose) and placebo) and time. The BACS composite score was summarized for baseline, post-dose, and change from baseline by treatment, dose, and time.
Each of the primary PD measures was analyzed using a Bayesian normal linear model with effects for sequence, period, treatment, time (as a categorical variable), the treatment-by-time interaction, subject within treatment sequence, and baseline (for BACS only). For the BOLD fMRI, the observed value was the response variable in the model. For the BACS, the observed and the change from baseline were modeled separately. Missing values were not imputed and were not included in the model under a missing at random assumption. A diffuse normal distribution with mean zero and variance 106 was used as a prior for the regression coefficients and a diffuse inverse gamma with shape and scale parameters of 0.01 for the residual variance. […]

[2] = tested on: endogenous dopamine release in the human brain; experiment: [^11C]PHNO PET of endogenous dopamine release after d-AMPH challenge; type: in vivo; conditions: for ΔΔBPND Mean (SD), Ca / ΔΔBPND Mean (SD), GP / ΔΔBPND Mean (SD), Pu / ΔΔBPND Mean (SD), SN / ΔΔBPND Mean (SD), VSt: attenuation of d-AMPH effect
Method: A T1-weighted magnetic resonance imaging (MRI) scan of the brain, performed at screening, was used to obtain anatomical information required for PET data analysis. Each subject underwent three [^11C]PHNO PET scans, one at baseline, the second approximately 3 h after a single oral dose of dex-amphetamine (d-AMPH, 0.5 mg/kg), and the third approximately 5 h after a single oral dose of Compound (I) (20 or 40 mg) and 3 h after an oral dose of dex-amphetamine (d-APMH) (0.5 mg/kg) (FIG. 2).
Subjects were positioned in the PET scanner, after the insertion of a venous cannula in an antecubital or forearm vein. Soft padding and head restraints were used to minimize head movement during data acquisition. All dynamic [^11C]PHNO PET scans were acquired on Siemens Biograph 6 PET/CT scanners (Hi-Rez (PET/CT1) or a TruePoint with TrueV, Siemens Healthcare, Erlangen, Germany). All scans for a particular subject were acquired on the same scanner. A low-dose computed tomography (CT) scan was performed immediately before each PET study to estimate signal attenuation. Following an intravenous bolus injection of [^11C]PHNO, dynamic emission data were acquired for 90 min in 26 frames of increasing duration. The dynamic images were reconstructed using Fourier rebinning and a 2D filtered discrete inverse Fourier transform algorithm with 5 mm isotropic Gaussian filter on a 128×128 matrix with 2.6 zoom giving 2 mm isotropic voxels. Appropriate corrections were applied for attenuation, randoms, and scatter.
The primary set of ROIs defined were the ventral striatum (VSt), putamen (Pu) and cerebellum. […] The cerebellum was used as a reference region. An additional set of ROIs including the caudate nucleus (Ca), globus pallidus (GP) and substantia nigra (SN) was also evaluated.
Regional TAC data extracted from the PET images were fitted using a basis function implementation of the SRTM (Gunn et al., 1997) to estimate the binding potential relative to the non-displaceable component (BPND) for each PET scan, as a measure of specific binding (Innis et al., 2007).
Reduction in [^11C]-PHNO specific binding following a d-AMPH challenge (ΔBPND^APMH) was quantified as percent change in postdose BPND (BPND^AMPH) from baseline BPND (BPND^BL):
Reduction in [^11C]-PHNO specific binding following a combination of Compound (I) and d-AMPH (ΔBPND^APMH+C1) was quantified as percent change in postdose BPND (BPND^AMPH+C1) from baseline BPND (BPND^BL):
The effect of Compound (I) (ΔΔBPND) was quantified as the percent change BPND in ΔBPND^APMH+C1 compared to ΔBPND^APMH:
All statistical comparisons were conducted using Student's t-tests for each ROI, using paired tests for within subject comparisons, and unpaired tests for between group comparisons.

Q: For C[C@H](NC(=O)Cn1nnc2ccccc2c1=O)c1ccc(OC(F)(F)F)cc1 [Compound (I), (S)-2-(4-oxobenzo[d][1,2,3]triazin-3(4H)-yl)-N-(1-(4-(trifluoromethoxy)phenyl)ethyl)acetamide], which “posterior mean (SD) for the difference to placebo, BACS composite score” value (shortened to “posterior mean (SD) for the difference”) ([1]; Day 14, 40 mg) is on record?
A: −0.23 (2.95)

Q: And the “posterior mean (SD) for the difference” value ([1]; Day 14, 160 mg)?
A: −0.84 (1.87)

Q: And the “posterior mean (SD) for the difference” value ([1]; Day 14, overall)?
A: −0.61 (1.50)

Q: What about the BACS performance ([1]; phase 2) of the same compound?
A: not seen to be affected

Q: And the “dose effect on ΔΔBPND, 40 mg group vs 20 mg group” value ([2]; Pu and GP, one-tailed t-tests, p<0.01)?
A: significantly greater than that in the 20 mg group

Q: And the “effect of pre-treatment on the d-AMPH challenge” value ([2]; all ROI, significant in Pu, VSt and SN)?
A: attenuated the effect of the d-AMPH challenge in all ROI examined

Q: What about the “ΔΔBPND Mean (SD), Ca” value ([2]; 20 mg single oral dose) of the same compound?
A: −4.2 (59.2) %

Q: What about the “ΔΔBPND Mean (SD), GP” value ([2]; 20 mg single oral dose) of the same compound?
A: −3.2 (19.7) %

Q: And the “ΔΔBPND Mean (SD), Pu” value ([2]; 20 mg single oral dose)?
A: 16.4 (11.3)* %

Q: And the “ΔΔBPND Mean (SD), SN” value ([2]; 20 mg single oral dose)?
A: 25.6 (49.7) %

Q: What about the “ΔΔBPND Mean (SD), VSt” value ([2]; 20 mg single oral dose) of the same compound?
A: 13.8 (14.1)* %

Q: And the “ΔΔBPND Mean (SD), Ca” value ([2]; 40 mg single oral dose)?
A: 24.8 (26.7) %

Q: And the “ΔΔBPND Mean (SD), GP” value ([2]; 40 mg single oral dose)?
A: 66.6 (32.4) %

Q: And the “ΔΔBPND Mean (SD), Pu” value ([2]; 40 mg single oral dose)?
A: 36.4 (7.7) * %

Q: And the “ΔΔBPND Mean (SD), SN” value ([2]; 40 mg single oral dose)?
A: 40.8 (58.6) %

Q: What about the “ΔΔBPND Mean (SD), VSt” value ([2]; 40 mg single oral dose) of the same compound?
A: 22.6 (20.3) %

Q: And the “ΔΔBPND Mean (SD), Ca” value ([2]; all subjects (20 or 40 mg))?
A: 10.3 (45.9) %

Q: And the “ΔΔBPND Mean (SD), GP” value ([2]; all subjects (20 or 40 mg))?
A: 31.7 (44.6) %

Q: What about the “ΔΔBPND Mean (SD), Pu” value ([2]; all subjects (20 or 40 mg)) of the same compound?
A: 26.4 (13.9)* %

Q: And the “ΔΔBPND Mean (SD), SN” value ([2]; all subjects (20 or 40 mg))?
A: 33.2 (51.8)* %

Q: What about the “ΔΔBPND Mean (SD), VSt” value ([2]; all subjects (20 or 40 mg)) of the same compound?
A: 18.2 (17.1)* %

Q: What about the blood-brain barrier crossing ([2]; healthy human volunteers) of the same compound?
A: readily crossed the blood-brain barrier

Q: What about the “modulation of dopamine release” value ([2]; healthy human volunteers, 20 or 40 mg single oral dose) of the same compound?
A: dose-dependent modulation of dopamine release
